Entries after “also recorded” stand apart in the source; their conditions may differ. Where two headings read alike, the source gives them in different places.
Legend:
[1] = Solubility of succinamic acid flavonols in 0.1 M Na2CO3 solution; type: physicochemical; details: for maximum concentrations attained: in 0.1 M Na2CO3 solution; for solubility in comparison with the unmodified moiety: qualitative
Method: Acetylcholine perchlorate was obtained from BDH Chemicals (Poole, Dorset, England). Phenylephrine and propranolol was purchased from Sigma-Aldrich Pty. Ltd. (Castle Hill, NSW, Australia). DiOHF was purchased from Indofine Chemical Co. Inc. (Belle Mead, N.J., U.S.A.). All other flavonols were synthesized in this study. […] was purchased from Cayman Chemical (Ann Arbor, Mich., U.S.A.). All chemicals were dissolved in distilled water, except the following. DiOHF was dissolved in 10% dimethyl sulphoxide (DMSO), 90% methanol, with subsequent dilutions in 50% methanol (10^−3 M), and distilled water (10^−4-10^−7 M). Succinamic acid-substituted flavonols were dissolved in 0.1 M Na2CO3 as a stock solution (B and C at 10^−1 and D at 10^−2 M), and further diluted in distilled water as required.

[2] = system: rat isolated thoracic aorta (endothelium-intact aortic rings), PE-induced contractions; assay: Effect of flavonols on phenylephrine-induced vasoconstriction (organ bath); type: cell-based; details: FIG. 1a, compared with diOHF, qualitative
Description: (§1) Vascular activity can be tested in standard organ bath assays using rat isolated thoracic aorta. The synthesized flavonols were first assayed for their ability to inhibit contractions induced by phenylephrine (PE), since it has been previously shown that flavonols can act as functional antagonists of PE. Next, the efficacy of the various flavonols would be determined in a direct relaxation assay. […] It was expected that the flavonols should reduce the magnitude of PE-induced contractions in endothelium-intact aortic rings, thus reducing the maximum response (Rmax) for PE-induced contractions.
(§2) Male Sprague-Dawley rats (200-400 g) were euthanised by exposure to 80% CO2, 20% O2, and their chests opened to isolate the thoracic aortae. After the removal of superficial connective tissues, the aorta was cut into ring segments, of approximately 2-3 mm in length. The aortic rings were then mounted between two stainless steel wires, one of which was linked to an isometric force transducer connected to a chart recorder, and the other end anchored to a glass rod submerged in a standard 10 mL organ bath. The organ bath was filled with Krebs-bicarbonate solution [composition (mM): NaCl, 118.0; KCl, 4.7; KH2PO4, 1.2; MgSO4.7H2O, 1.2; glucose, 5.0; NaHCO3, 25.0; CaCl2.2H2O, 2.5]. The bath medium was maintained at 37° C., pH 7.4 and continuously aerated with 95% O2, 5% CO2.
Aortic rings were equilibrated for 1 h at a resting tension of 1 g, then were precontracted with an isotonic, high potassium physiological salt solution (KPSS) in which all of the NaCl of the normal Krebs solution was replaced with KCl (122.7 mM), so as to achieve maximal contraction. The solution was then washed out and replaced with normal Krebs solution. […]
Aortic rings were incubated with a β-adrenoceptor antagonist, propranolol (10^−5 M), and either vehicle or flavonol (10^−4-10^−5 M) for 15 min before cumulative doses of phenylephrine (10^−9-10^−4.5 M) were added to generate a concentration-response curve to phenylephrine. Contraction responses were expressed as a percentage of KPSS-induced tension.

[3] = system: rat isolated thoracic aorta (aortic rings); assay: Vasorelaxation (direct relaxation assay) in precontracted aortic rings; type: cell-based; details: for vasorelaxation activity in the relaxation assay: FIG. 1b, qualitative; for Emax: read-out: Rmax (%) maximum response in the relaxation assay
Description: as §1, §2
Aortic rings were equilibrated for 1 h at a resting tension of 1 g, then were precontracted with an isotonic, high potassium physiological salt solution (KPSS) in which all of the NaCl of the normal Krebs solution was replaced with KCl (122.7 mM), so as to achieve maximal contraction. The solution was then washed out and replaced with normal Krebs solution. After re-equilibration, the rings were submaximally contracted with phenylephrine (PE, 10^−8-10^−7 M) and endothelial integrity was tested by a single dose of acetylcholine (Ach, 10^−5 M). Only rings that responded to Ach (≧90% relaxation) were judged endothelium intact and were used in the subsequent experiments. The aortic rings were then re-equilibrated (15 min) before the subsequent experiment.
Aortic rings were precontracted submaximally with phenylephrine (10^−8-10^−7 M) and the thromboxane mimetic, 9,11-dideoxy-9α,11α-epoxymethano-prostaglandin F2α (U46619, 10^−10-10^−9 M) to approximately 50% of KPSS-induced contraction. After stabilization of the contraction, cumulative doses of the flavonol or vehicle (10^−10-10^−4 M) were added to generate a concentration-response curve. Relaxant responses were expressed as a percentage of the precontraction tension.
The results are expressed as the mean±s.e. mean and n indicates the number of experiments (rats). Relaxation concentration-response curves for diOHF were computer fitted to a sigmoidal curve using non-linear regression (Prism version 4) to enable calculation of pEC50 of the flavonols. […] Maximum relaxation responses were compared using a one way analysis of variance (ANOVA) with post-hoc multiple comparison using Newman-Keuls test. Superoxide levels were compared using a one way analysis of variance (ANOVA) with post hoc multiple comparison using Dunnett's test.

[4] = system: superoxide (NADPH oxidase-driven) in isolated rat aortic rings; assay: Lucigenin-enhanced chemiluminescence assay of superoxide in isolated aortic rings; type: cell-based; details: rat aortic rings incubated with NADPH; FIG. 2; compared with diOHF; qualitative
Method: Since the vascular activity of the synthesized flavonols was attenuated, it was of great interest to test these compounds for antioxidant activity. Antioxidant activity can be assessed in a tissue-based lucigenin-enhanced chemiluminescence assay. Isolated rat aortic rings were incubated with NADPH and the various flavonols. NADPH, a substrate for NADPH oxidase in the vasculature, increases superoxide production. Superoxide that is produced reacts with lucigenin, leading to the emission of photons, which can be quantified to give a measure of superoxide levels.
Superoxide concentrations were measured in isolated aortic rings by lucigenin-enhanced chemiluminescence. Prior to assaying, the aortic rings were incubated at 37° C. for 1 h in Krebs-EPES buffer containing DETCA (3×10^−5 M), which inactivates superoxide dismutase, NADPH (10^−4 M) and either vehicle, succinamic acid-substituted flavonol (10^−4 or 10^−5 M) or diOHF (10^−4 or 10^−5 M). Assay solutions consisting of lucigenin (5×10^−6 M), NADPH (10^−4 M) and either vehicle (DMSO), succinamic acid-substituted flavonol (10^−4 or 10^−5 M) or 3′,4′-dihydroxyflavonol (diOHF, 10^−4 or 10^−5 M), as a positive control, were prepared in Krebs-HEPES buffer [composition (mM): NaCl, 99.0; KCl, 4.7; KH2PO4, 1.0; MgSO4.7H2O, 1.2; glucose, 11.0; NaHCO3, 25.0; CaCl2.2H2O, 2.5; Na-HEPES, 20.0]. 300 μL aliquots of the assay solution were placed into separate wells on a 96-well Optiplate, which was loaded into a TopCount single photon counter (Packard Bioscience) to determine the background emission (12 cycles). After background counting was completed, one aortic ring was added per well, and photon emission was counted (12 cycles). Superoxide levels were reported as a percentage of photon emission for +NADPH control. At the conclusion of the assay, the aortic rings were dried for 48 h at 80° C. for normalization of superoxide production to dry tissue weight.
The results are expressed as the mean±s.e. mean and n indicates the number of experiments (rats). […]

[5] = rat aortic rings precontracted with phenylephrine and U46619, percentage of precontraction tension, mean ± s.e. mean

Row | maximum concentrations attained [1] | solubility in comparison with the unmodified moiety [1] | SMILES | inhibition of PE-induced contractions (vascular activity) [2] | vasorelaxation activity in the relaxation assay [3] | Emax [3, 5] | antioxidant activity (superoxide levels) [4] | Emax ([3]; Rattus norvegicus) | EC50 ([3]; Rattus norvegicus, read-out: pEC50 (relaxation) (converted))
1 | 10^−1 M | improved solubility | O=C(O)CCC(=O)Nc1ccc2oc(-c3ccccc3)c(O)c(=O)c2c1 [B, 6-(Hydroxycarbonylethylcarbonylamino)flavonol] | less effective than diOHF | weak vasorelaxation activity | 47 ± 2% | moderate to good antioxidant activity |  | 
2 | 10^−1 M | improved solubility | O=C(O)CCC(=O)Nc1ccc2oc(-c3ccc(O)cc3)c(O)c(=O)c2c1 [C, 4′-Hydroxy-6-(hydroxycarbonylethylcarbonylamino)flavonol] | less effective than diOHF | weak vasorelaxation activity | 80 ± 5% | little effect |  | 
3 | 10^−2 M | improved solubility | O=C(O)CCC(=O)Nc1ccc2oc(-c3ccc(O)c(O)c3)c(O)c(=O)c2c1 [D, 3′,4′-Dihydroxy-6-(hydroxycarbonylethylcarbonylamino)flavonol] | less effective than diOHF; also recorded: vascular activity was completely abolished | slight contractions were observed at high concentrations | -25 ± 3% | moderate to good antioxidant activity; also recorded: superoxide levels were substantially reduced |  | 
4 |  |  | O=c1c(O)c(-c2ccc(O)c(O)c2)oc2ccccc12 [diOHF, 3′,4′-dihydroxyflavonol, reference compound] |  |  |  |  | 105 ± 2% | 4.68 µM

Reference: patent US7863323B1, “Flavonols” (The University of Melbourne, priority 2006, dated 2011)
